{"source": "EPA's ToxRefDB 2", "key": {"rabbit": {"system": "rabbit", "details": "Prenatal developmental toxicity study, chinchilla, Oral, Gavage/Intubation, dose end: 18 GD"}, "rat [1]": {"system": "rat", "details": "Multigenerational reproductive toxicity study, sprague dawley, Oral, Feed, dose end: 2 generation"}, "rat [2]": {"system": "rat", "details": "Combined chronic toxicity/carcinogenicity, fischer, Oral, Feed, dose end: 24 month"}, "mouse [3]": {"system": "mouse", "details": "Carcinogenicity, cd1, Oral, Feed, dose end: 87 week, group: systemic"}, "rat [4]": {"system": "rat", "details": "Combined chronic toxicity/carcinogenicity, sprague dawley, Oral, Feed, dose end: 24 month, group: systemic"}, "dog [5]": {"system": "dog", "details": "Subchronic oral toxicity in nonrodent, beagle, Feed, dose end: 26 week, group: systemic, systemic / in life observation / clinical signs / chewing of extremities + systemic / in life observation / clinical signs / muscle …"}, "rat [6]": {"system": "rat", "details": "Chronic toxicity, Sprague-Dawley, Oral, Feed, dose end: 104 week, group: systemic"}, "mouse [7]": {"system": "mouse", "details": "Combined chronic toxicity/carcinogenicity, other, Oral, Feed, dose end: 91 week, group: systemic"}, "rat [8]": {"system": "rat", "details": "Combined chronic toxicity/carcinogenicity; sprague dawley; Oral; Feed; dose end: 24 month; group: systemic; systemic / in life observation / clinical signs / urine staining - perineum"}, "mouse [9]": {"system": "mouse", "details": "Combined chronic toxicity/carcinogenicity, cd1, Oral, Feed, dose end: 78 week, group: systemic"}, "dog [10]": {"system": "dog", "details": "Chronic toxicity, beagle, Oral, Feed, dose end: 52 week, group: systemic"}, "[11]": {"details": "group: developmental, developmental / developmental malformation / bone / absent + developmental / developmental malformation / bone / fused + developmental / …"}, "[12]": {"details": "group: maternal, systemic / in life observation / body weight / body weight gain + systemic / in life observation / clinical signs / ataxia + systemic / in …"}, "[13]": {"details": "group: cholinesterase, cholinesterase / cholinesterase / cholinesterase / plasma cholinesterase (che)"}, "[14]": {"details": "group: offspring, developmental / offspring survival late / lactation index / lactation index"}, "[15]": {"details": "group: offspring, developmental / offspring survival late / lactation index / lactation index + systemic / in life observation / body weight / offspring (pup…"}, "[16]": {"details": "group: parental, systemic / in life observation / body weight / body weight"}, "[17]": {"details": "group: parental, systemic / organ weight / ovary / relative to body weight"}, "[18]": {"details": "group: cholinesterase, cholinesterase / cholinesterase / cholinesterase / brain cholinesterase (che) + cholinesterase / cholinesterase / cholinesterase / …"}, "[19]": {"details": "group: systemic, systemic / hematology / mean corpuscular (cell) volume (mcv) / mean corpuscular (cell) volume (mcv) + systemic / in life observation / body …"}, "[20]": {"details": "systemic / organ weight / brain / absolute"}, "[21]": {"details": "systemic / organ weight / brain / absolute + systemic / in life observation / body weight / body weight + systemic / in life observation / …"}, "[22]": {"details": "systemic / in life observation / body weight / body weight"}, "[23]": {"details": "systemic / in life observation / body weight / body weight + systemic / clinical chemistry / alpha-2 globulin / alpha-2 globulin + systemic…"}, "[24]": {"details": "systemic / in life observation / body weight / body weight + systemic / organ weight / brain / relative to body weight + systemic / organ …"}, "[25]": {"details": "systemic / pathology microscopic / liver / granuloma + systemic / pathology microscopic / lymph node / granuloma + systemic / clinical …"}, "[26]": {"details": "systemic / pathology microscopic / liver / granuloma + systemic / pathology microscopic / lymph node / granuloma + systemic / hematology / …"}, "[27]": {"details": "systemic / in life observation / body weight / body weight gain + systemic / in life observation / body weight / body weight + systemic / …"}, "[28]": {"details": "systemic / clinical chemistry / alanine aminotransferase (alt/sgpt) / alanine aminotransferase (alt/sgpt) + systemic / clinical chemistry / …"}, "[29]": {"details": "systemic / organ weight / liver / absolute"}}}
{"smiles": "CCOP(=O)(NC(C)C)Oc1ccc(SC)c(C)c1", "note": "(stereo not given) [Fenamiphos]", "values": [{"measurement": "LEL", "setting": "rabbit; [11]", "result": 2.5, "unit": "mg/kg/day"}, {"measurement": "LOAEL", "setting": "rabbit; [11]", "result": 2.5, "unit": "mg/kg/day"}, {"measurement": "NEL", "setting": "rabbit; [11]", "result": 0.5, "unit": "mg/kg/day"}, {"measurement": "NOAEL", "setting": "rabbit; [11]", "result": 0.5, "unit": "mg/kg/day"}, {"measurement": "LEL", "setting": "rabbit; [12]", "result": 2.5, "unit": "mg/kg/day"}, {"measurement": "LOAEL", "setting": "rabbit; [12]", "result": 2.5, "unit": "mg/kg/day"}, {"measurement": "NEL", "setting": "rabbit; [12]", "result": 0.5, "unit": "mg/kg/day"}, {"measurement": "NOAEL", "setting": "rabbit; [12]", "result": 0.5, "unit": "mg/kg/day"}, {"measurement": "LEL", "setting": "rat [1]; [13]", "result": 0.19, "unit": "mg/kg/day"}, {"measurement": "LOAEL", "setting": "rat [1]; [13]", "result": 0.19, "unit": "mg/kg/day"}, {"measurement": "NEL", "setting": "rat [1]; [13]", "result": "< 0.19", "unit": "mg/kg/day"}, {"measurement": "NOAEL", "setting": "rat [1]; [13]", "result": "< 0.19", "unit": "mg/kg/day"}, {"measurement": "LEL", "setting": "rat [1]; [14]", "result": 0.65, "unit": "mg/kg/day"}, {"measurement": "LOAEL", "setting": "rat [1]; [14]", "result": 0.65, "unit": "mg/kg/day"}, {"measurement": "NEL", "setting": "rat [1]; [15]", "result": 0.17, "unit": "mg/kg/day"}, {"measurement": "NOAEL", "setting": "rat [1]; [15]", "result": 0.17, "unit": "mg/kg/day"}, {"measurement": "LOAEL", "setting": "rat [1]; [16]", "result": "> 2.94", "unit": "mg/kg/day"}, {"measurement": "NOAEL", "setting": "rat [1]; [16]", "result": "≥ 2.94", "unit": "mg/kg/day"}, {"measurement": "LEL", "setting": "rat [1]; [17]", "result": 0.2, "unit": "mg/kg/day"}, {"measurement": "NEL", "setting": "rat [1]; [17]", "result": "< 0.2", "unit": "mg/kg/day"}, {"measurement": "LEL", "setting": "rat [2]; [18]", "result": 0.098, "unit": "mg/kg/day"}, {"measurement": "LOAEL", "setting": "rat [2]; [18]", "result": 0.098, "unit": "mg/kg/day"}, {"measurement": "NEL", "setting": "rat [2]; [18]", "result": "< 0.098", "unit": "mg/kg/day"}, {"measurement": "NOAEL", "setting": "rat [2]; [18]", "result": "< 0.098", "unit": "mg/kg/day"}, {"measurement": "LEL", "setting": "rat [2]; [19]", "result": 2.45, "unit": "mg/kg/day"}, {"measurement": "LOAEL", "setting": "rat [2]; [19]", "result": "> 2.45", "unit": "mg/kg/day"}, {"measurement": "NEL", "setting": "rat [2]; [19]", "result": 0.464, "unit": "mg/kg/day"}, {"measurement": "NOAEL", "setting": "rat [2]; [19]", "result": "≥ 2.45", "unit": "mg/kg/day"}, {"measurement": "LEL", "setting": "mouse [3]; [20]", "result": 0.3, "unit": "mg/kg/day"}, {"measurement": "NEL", "setting": "mouse [3]; [20]", "result": "< 0.3", "unit": "mg/kg/day"}, {"measurement": "LOAEL", "setting": "mouse [3]; [21]", "result": "> 7.5", "unit": "mg/kg/day"}, {"measurement": "NOAEL", "setting": "mouse [3]; [21]", "result": "≥ 7.5", "unit": "mg/kg/day"}]}
{"smiles": "CC(C)[C@@H](C(=O)O[C@@H](C#N)c1cccc(Oc2ccccc2)c1)c1ccc(Cl)cc1", "note": "[Fenvalerate]", "values": [{"measurement": "LEL", "setting": "rat [4]; [22]", "result": 1.25, "unit": "mg/kg/day"}, {"measurement": "NEL", "setting": "rat [4]; systemic / in life observation / body weight / body weight + systemic / clinical chemistry / alpha-2 globulin / alpha-2 globulin", "result": 0.25, "unit": "mg/kg/day"}, {"measurement": "LOAEL", "setting": "rat [4]; [23]", "result": "> 25", "unit": "mg/kg/day"}, {"measurement": "NOAEL", "setting": "rat [4]; [23]", "result": "≥ 25", "unit": "mg/kg/day"}, {"measurement": "LEL", "setting": "dog [5]", "result": 6.25, "unit": "mg/kg/day"}, {"measurement": "LOAEL", "setting": "dog [5]", "result": 6.25, "unit": "mg/kg/day"}, {"measurement": "NEL", "setting": "dog [5]", "result": "< 6.25", "unit": "mg/kg/day"}, {"measurement": "NOAEL", "setting": "dog [5]", "result": "< 6.25", "unit": "mg/kg/day"}, {"measurement": "LOAEL", "setting": "rat [6]; [22]", "result": 50, "unit": "mg/kg/day"}, {"measurement": "NOAEL", "setting": "rat [6]; [22]", "result": "< 50", "unit": "mg/kg/day"}, {"measurement": "LEL", "setting": "rat [6]; [24]", "result": 50, "unit": "mg/kg/day"}, {"measurement": "NEL", "setting": "rat [6]; [24]", "result": "< 50", "unit": "mg/kg/day"}, {"measurement": "NEL", "setting": "mouse [7]; [25]", "result": 4.5, "unit": "mg/kg/day"}, {"measurement": "NOAEL", "setting": "mouse [7]; [25]", "result": 4.5, "unit": "mg/kg/day"}, {"measurement": "LEL", "setting": "mouse [7]; [26]", "result": 15, "unit": "mg/kg/day"}, {"measurement": "LOAEL", "setting": "mouse [7]; [26]", "result": 15, "unit": "mg/kg/day"}]}
{"smiles": "CC(C)C1(C)N=C(c2nc3ccccc3cc2C(=O)O)NC1=O", "note": "(stereo not given) [Imazaquin]", "values": [{"measurement": "LEL", "setting": "rat [8]", "result": 500, "unit": "mg/kg/day"}, {"measurement": "LOAEL", "setting": "rat [8]", "result": "> 500", "unit": "mg/kg/day"}, {"measurement": "NEL", "setting": "rat [8]", "result": 250, "unit": "mg/kg/day"}, {"measurement": "NOAEL", "setting": "rat [8]", "result": "≥ 500", "unit": "mg/kg/day"}, {"measurement": "LOAEL", "setting": "mouse [9]; systemic / in life observation / body weight / body weight gain", "result": 600, "unit": "mg/kg/day"}, {"measurement": "LEL", "setting": "mouse [9]; [27]", "result": 600, "unit": "mg/kg/day"}, {"measurement": "NEL", "setting": "mouse [9]; [27]", "result": 150, "unit": "mg/kg/day"}, {"measurement": "NOAEL", "setting": "mouse [9]; [27]", "result": 150, "unit": "mg/kg/day"}, {"measurement": "LOAEL", "setting": "dog [10]; [28]", "result": 125, "unit": "mg/kg/day"}, {"measurement": "NOAEL", "setting": "dog [10]; [28]", "result": 25, "unit": "mg/kg/day"}, {"measurement": "LEL", "setting": "dog [10]; [29]", "result": 5, "unit": "mg/kg/day"}, {"measurement": "NEL", "setting": "dog [10]; [29]", "result": "< 5", "unit": "mg/kg/day"}]}
